± gives the expanded uncertainty stated by the source.
Legend:
[1] = 298.15 K, 101.33 kPa, Liquid; for viscosity: Capillary tube (Ostwald / Ubbelohde) method
[2] = xn = mol fraction of the nth substance listed; settings: 298.15 K, 101 kPa, Liquid; for viscosity: Capillary tube (Ostwald / Ubbelohde) method

C1CCCCC1 [cyclohexane]
[1]
Settings | mass density [kg/m3] | viscosity [mPa·s]
– | 773.93 ± 0.37 | 0.894 ± 0.007

C1CCCCC1 [cyclohexane] + Cc1ccccc1
[2]
Settings | mass density [kg/m3] | viscosity [mPa·s]
x2 = 0.0407 | 776.48 ± 0.37 | 0.8158 ± 0.0073
x2 = 0.2018 | 788.44 ± 0.38 | 0.7133 ± 0.0066
x2 = 0.2798 | 794.63 ± 0.39 | 0.6687 ± 0.0063
x2 = 0.3613 | 801.33 ± 0.4 | 0.6305 ± 0.006
x2 = 0.4416 | 808.17 ± 0.41 | 0.6081 ± 0.0058
x2 = 0.6003 | 822.4 ± 0.42 | 0.566 ± 0.0056
x2 = 0.6784 | 829.75 ± 0.44 | 0.5534 ± 0.0055
x2 = 0.7615 | 837.82 ± 0.45 | 0.5429 ± 0.0055
x2 = 0.8396 | 845.63 ± 0.46 | 0.5395 ± 0.0055
x2 = 0.9202 | 853.94 ± 0.47 | 0.5393 ± 0.0055

CCCCC [pentane]
[1]
Settings | mass density [kg/m3] | viscosity [mPa·s]
– | 621.32 ± 0.99 | 0.219 ± 0.005

CCCCC [pentane] + C1CCCCC1
[2]
Settings | mass density [kg/m3] | viscosity [mPa·s]
x2 = 0.0437 | 627.56 ± 0.49 | 0.2065 ± 0.0025
x2 = 0.2145 | 653.09 ± 0.48 | 0.2555 ± 0.0029
x2 = 0.2955 | 665.44 ± 0.47 | 0.2828 ± 0.0031
x2 = 0.3753 | 677.59 ± 0.47 | 0.3128 ± 0.0034
x2 = 0.4595 | 690.43 ± 0.47 | 0.3503 ± 0.0037
x2 = 0.6125 | 713.75 ± 0.47 | 0.4425 ± 0.0046
x2 = 0.7048 | 727.81 ± 0.48 | 0.5146 ± 0.0052
x2 = 0.7791 | 739.14 ± 0.48 | 0.5847 ± 0.0059
x2 = 0.8514 | 750.15 ± 0.49 | 0.6591 ± 0.0066
x2 = 0.9254 | 761.85 ± 0.49 | 0.7641 ± 0.0076

CCCCC [pentane] + Cc1ccccc1
[2]
Settings | mass density [kg/m3] | viscosity [mPa·s]
x2 = 0.0415 | 630.69 ± 0.55 | 0.2029 ± 0.0026
x2 = 0.2011 | 668.27 ± 0.54 | 0.2231 ± 0.0028
x2 = 0.2799 | 687.21 ± 0.53 | 0.2386 ± 0.0029
x2 = 0.3647 | 707.61 ± 0.53 | 0.2592 ± 0.0031
x2 = 0.4341 | 724.3 ± 0.52 | 0.2786 ± 0.0033
x2 = 0.6011 | 764.45 ± 0.51 | 0.3367 ± 0.0038
x2 = 0.6821 | 783.95 ± 0.5 | 0.3688 ± 0.0041
x2 = 0.7502 | 800.32 ± 0.5 | 0.3999 ± 0.0044
x2 = 0.8213 | 817.43 ± 0.49 | 0.4371 ± 0.0047
x2 = 0.9137 | 840.19 ± 0.49 | 0.4891 ± 0.0051

Cc1ccccc1 [toluene]
[1]
Settings | mass density [kg/m3] | viscosity [mPa·s]
– | 862.19 ± 0.62 | 0.552 ± 0.006

From the NIST ThermoML archive (doi:10.1021/je0501944)
